{"source": "patent US20190321324A1", "about": "“QUATERNARY AMINE ANTIBIOTIC THERAPEUTICS” (BOARD OF REGENTS, THE UNIVERSITY OF TEXAS SYSTEM, priority 2016, published 2019)", "key": {"S. aureus": {"tested_on": "S. aureus", "test": "S. aureus MIC of clinically used QACs", "format": "cell-based, Staphylococcus aureus", "settings": "unit assumed", "method": "(§1) The antimicrobial activity of three QACs that have been approved for human use; Bretylium tosylate, Clofilium tosylate, and Otilonium bromide, were tested (FIG. 1). The length of the hydrocarbon tail on BAC is known to strongly influence its behavior. Clofilium tosylate and Otilonium bromide both have hydrocarbon tails that are hypothesized to allow cell envelope penetration. […] Similar activity was determine for these three compounds in S. aureus (Table 2)"}, "A. baumannii": {"tested_on": "A. baumannii", "test": "A. baumannii MIC of clinically used QACs", "format": "cell-based, Acinetobacter baumannii", "settings": "for MIC: unit assumed; for Prevention of growth (in words): antibiotic resistant and susceptible A. baumannii; for Effect of ribosomal mutations on MIC (in words): BAC resistant mutants, S11 and L24 (Mutants 1 and 4)", "method": "as §1\nBAC, Bretylium tosylate, Clofilium tosylate, and Otilonium bromide are all QACs but with different structures. […] Bretylium tosylate, Clofilium tosylate, and Otilonium bromide were tested on BAC resistant mutants representing mutations in ribosomal proteins S11, L23, L24 and the UTR of the ribosomal operon. […] The MIC to Otilonium bromide was not affected in these mutants."}, "A. baumannii lon mutant": {"tested_on": "A. baumannii lon mutant", "test": "Sensitivity of A. baumannii lon mutant to Otilonium bromide treatment", "format": "cell-based, Acinetobacter baumannii"}, "C. difficile": {"tested_on": "C. difficile", "test": "C. difficile minimal bactericidal assay (MBC)", "format": "cell-based, Clostridium difficile", "settings": "Clostridioides difficile, 20 h, 20 h at 37° C., anaerobic", "method": "Activity of Otilonium bromide was also tested using two strains of C. difficile, 43255 and 630 (MDR). The minimal bactericidal assay was performed using 5×10^5 C. difficile bacteria where incubated with vancomycin or OB at the indicated concentrations for 20 h at 37° C. in an anaerobic chamber. The total volume per well in BHIS medium was 100 μl and 5 μL was spotted on RCM medium and plates were incubated for 24 h. The MBC is identified as the concentration of compound the reduced cfu to single or no numbers."}}, "note": "Counter-ions that a name gives are not always drawn. Like-named read-outs stand apart in the source and are kept apart here.", "data": [{"compound": "CC[N+](C)(C)Cc1ccccc1Br", "note": "[Bertylium tosylate, Bretylium tosylate]", "values": [{"measurement": "MIC", "setting": "S. aureus; strain MU50 (MDR)", "value": "> 256", "unit": "µg/mL"}, {"measurement": "MIC", "setting": "S. aureus; strain Newman", "value": "> 256", "unit": "µg/mL"}, {"measurement": "MIC", "setting": "A. baumannii; BAC resistant Mutant 1 (20)", "value": "> 256", "unit": "µg/mL"}, {"measurement": "MIC", "setting": "A. baumannii; BAC resistant Mutant 4 (23)", "value": "> 256", "unit": "µg/mL"}, {"measurement": "MIC", "setting": "A. baumannii; BAC resistant Mutant 7 (19)", "value": "> 256", "unit": "µg/mL"}, {"measurement": "MIC", "setting": "A. baumannii; BAC resistant Mutant 8 (3)", "value": "> 256", "unit": "µg/mL"}, {"measurement": "Prevention of growth (in words)", "setting": "A. baumannii", "value": "did not show activity"}, {"measurement": "MIC", "setting": "A. baumannii; strain 17978", "value": "> 256", "unit": "µg/mL"}, {"measurement": "MIC", "setting": "A. baumannii; strain AYE (MDR)", "value": "> 256", "unit": "µg/mL"}]}, {"compound": "CCCCCCCCOc1ccccc1C(=O)Nc1ccc(C(=O)OCC[N+](C)(CC)CC)cc1.[Br-]", "note": "[Otilonium bromide]", "values": [{"measurement": "Sensitivity of lon mutant (in words)", "setting": "A. baumannii lon mutant", "value": "highly sensitized"}, {"measurement": "MIC", "setting": "S. aureus; strain MU50 (MDR)", "value": 4, "unit": "µg/mL"}, {"measurement": "MIC", "setting": "S. aureus; strain Newman", "value": 2, "unit": "µg/mL"}, {"measurement": "MBC", "setting": "C. difficile; strain 630 (MDR), read-out: MBC", "value": 2, "unit": "µg/mL"}, {"measurement": "MBC", "setting": "C. difficile; strain 43255, read-out: MBC", "value": 1, "unit": "µg/mL"}, {"measurement": "MIC", "setting": "A. baumannii; BAC resistant Mutant 1 (20)", "value": 16, "unit": "µg/mL"}, {"measurement": "MIC", "setting": "A. baumannii; BAC resistant Mutant 4 (23)", "value": 16, "unit": "µg/mL"}, {"measurement": "MIC", "setting": "A. baumannii; BAC resistant Mutant 7 (19)", "value": 16, "unit": "µg/mL"}, {"measurement": "MIC", "setting": "A. baumannii; BAC resistant Mutant 8 (3)", "value": 16, "unit": "µg/mL"}, {"measurement": "Effect of ribosomal mutations on MIC (in words)", "setting": "A. baumannii", "value": "not affected"}, {"measurement": "Prevention of growth (in words)", "setting": "A. baumannii", "value": "prevent growth"}, {"measurement": "MIC compared with BAC", "setting": "A. baumannii; strain 17978", "value": "equivalent to that of BAC"}, {"measurement": "MIC", "setting": "A. baumannii; strain 17978", "value": 16, "unit": "µg/mL"}, {"measurement": "MIC", "setting": "A. baumannii; strain AYE (MDR)", "value": 16, "unit": "µg/mL"}]}, {"compound": "CN[C@H](CC(C)C)C(=O)N[C@H]1C(=O)N[C@@H](CC(N)=O)C(=O)N[C@H]2C(=O)N[C@H]3C(=O)N[C@H](C(=O)N[C@H](C(=O)O)c4cc(O)cc(O)c4-c4cc3ccc4O)[C@H](O)c3ccc(c(Cl)c3)Oc3cc2cc(c3O[C@@H]2O[C@H](CO)[C@@H](O)[C@H](O)[C@H]2O[C@H]2C[C@](C)(N)[C@H](O)[C@H](C)O2)Oc2ccc(cc2Cl)[C@H]1O", "note": "[Vancomycin]", "values": [{"measurement": "MBC", "setting": "C. difficile; strain 630 (MDR)", "value": "~2", "unit": "µg/mL"}, {"measurement": "MBC", "setting": "C. difficile; strain 43255", "value": 1, "unit": "µg/mL"}]}, {"compound": "Clofilium tosylate", "values": [{"measurement": "MIC", "setting": "S. aureus; strain MU50 (MDR)", "value": 32, "unit": "µg/mL"}, {"measurement": "MIC", "setting": "S. aureus; strain Newman", "value": 16, "unit": "µg/mL"}, {"measurement": "MIC", "setting": "A. baumannii; BAC resistant Mutant 7 (19)", "value": 256, "unit": "µg/mL"}, {"measurement": "MIC", "setting": "A. baumannii; BAC resistant Mutant 8 (3)", "value": 256, "unit": "µg/mL"}, {"measurement": "Effect of ribosomal mutations on MIC (in words)", "setting": "A. baumannii", "value": "increased resistance"}, {"measurement": "Prevention of growth (in words)", "setting": "A. baumannii", "value": "prevent growth"}, {"measurement": "MIC", "setting": "A. baumannii; strain 17978", "value": 128, "unit": "µg/mL"}, {"measurement": "MIC", "setting": "A. baumannii; strain AYE (MDR)", "value": 128, "unit": "µg/mL"}]}]}
